Experiment [1] deals with ATCC19606 (a standard strain of A. baumannii). The experiment is described as follows: Animal protection experiment, mice infected with ATCC19606. Format: in vivo, Acinetobacter baumannii. The settings on record: for ED50: Acinetobacter baumannii; for inhibitory effect on the standard strain of A. baumannii without drug resistance (in words): infected ICR mice, summary of Table 1. The procedure: (§1) Tested animals were ICR mice. Tested bacterial strains were ATCC19606 (a standard strain of A. baumannii), CBP-R (a carbapenem-resistant strain of A. baumannii), and CPZ/S-R (a cefoperazone-sulbactam-resistant strain of A. baumannii). Among them, the standard strain was obtained from ATCC, and the other strains were clinically isolated.
(§2) Determining the dose ranges of the tested samples: The tested strains were diluted with 5% high active dry yeast to obtain bacterial dilutions of different concentrations (10^−1, 10^−2, 10^−3, and 10^−4), and then intraperitoneally injected into the tested animals in 0.5 ml/mice. The number of dead mice after infection was recorded. The minimum bacterial dose, which kills 100% members of the mice, was recorded as 1 MLD. The mice were infected with 1 MLD of bacteria which was formulated with 5% high active dry yeast Immediately and 6 hours after the infection, a preliminary experiment was carried out with high, median and low dosages of the tested samples, and the survival numbers of the mice after infection were recorded. Based on the results of the preliminary experiment, the administration dosages of the tested samples were designed for the animal protection experiment.
(§3) Animal protection experiment: After fasting with water only for 18 h, the mice (half male and female, 25-30 g body weight) were randomly divided into: (1) ATCC19606 group, (2) CBP-R group, and (3) CPZ/S-R group. Each group was treated with five concentrations of the samples, and included 10 animals. In addition, 10 animals were incorporated as a control group. Each mouse was intraperitoneally injected with 0.5 ml of 1 MLD bacterial solution to establish an infection model. At 0 h and 6 h after infection, the mice were subcutaneously injected with different concentrations of the tested samples, 0.2 ml/mice, and the mice of the control group were injected with the same volume of sterilized water. The animals were observed continuously for 7 days, and the death of animals in each group was recorded. The 50% effective dose (ED50) of each tested sample was calculated by the Bliss method. Smaller ED50 means that the tested sample has better anti-bacterial effect in vivo, and better protective effect on the experimental animals.

For experiment [2], the system named is CBP-R (a carbapenem-resistant strain of A. baumannii). Kind of experiment: Animal protection experiment, mice infected with CBP-R. Format: in vivo, Acinetobacter baumannii. The settings on record: for ED50: Acinetobacter baumannii, read-out: ED50 for animals infected with A. baumannii, CBP-R a carbapenem-resistant A. baumannii; for inhibitory / anti-bacterial effect on drug-resistant strains of A. baumannii (in words): infected ICR mice, drug-resistant strains (CBP-R and CPZ/S-R), summary of Table 1. As to the method:
as §1, §2, §3

Experiment [3] concerns CPZ/S-R (a cefoperazone-sulbactam-resistant strain of A. baumannii). Kind of experiment: Animal protection experiment, mice infected with CPZ/S-R. The note with it: Acinetobacter baumannii, read-out: ED50 for animals infected with A. baumannii, CPZ/S-R a cefoperazone-sulbactam resistant A. baumannii. Format: in vivo. The procedure: as §1
as §2, with “Based on the results of the preliminary experiment, the administration dosages of the tested samples were designed for the animal protection experiment.” left out
Animal protection experiment: After fasting with water only for 18 h, the mice (half male and female, 25-30 g body weight) were randomly divided into: (1) ATCC19606 group, (2) CBP-R group, and (3) CPZ/S-R group. […] The animals were observed continuously for 7 days, and the death of animals in each group was recorded. […]

The subject of experiment [4] is A. baumannii. The settings on record: it is reported; cited from earlier work.
[5] abbreviates: ICR mice, 1 MLD i.p. infection, s.c. dosing at 0 h and 6 h, 7 days observation, Bliss method.

Where two headings read alike, the source gives them in different places.

For `C[C@@H](O)[C@H]1C(=O)N2C(C(=O)O)=C(S[C@@H]3CN[C@H](C(=O)N(C)C)C3)[C@H](C)[C@H]12` [Meropenem], the ED50 is under 20 mg/kg in experiment [1] (ATCC19606, ICR mice, 1 MLD i.p. infection, s.c. dosing at 0 h and 6 h, 7 days observation, Bliss method, read-out: ED50 for animals infected with A. baumannii, ATCC19606 a standard strain); over 200 mg/kg in experiment [2] (setting [5]); 100 to 200 mg/kg in experiment [3] (setting [5]). Moreover, the “inhibitory effect on the standard strain of A. baumannii without drug resistance (in words)” value in experiment [1] is reported as “more advantageous in pharmaceutical efficacy”. In addition, in experiment [2], the “inhibitory / anti-bacterial effect on drug-resistant strains of A. baumannii (in words)” value is reported as “significantly decreased inhibitory effect”.
Consider `CC1(C)[C@H](C(=O)O)N2C(=O)C[C@H]2S1(=O)=O` [Sulbactam, (2S,5R)-3,3-dimethyl-7-oxo-4-thia-1-azabicyclo[3.2.0]heptane-2-carboxylic acid-4,4-dioxide], for which the ED50 is under 20 mg/kg in experiment [1] (ATCC19606, read-out: ED50 for animals infected with A. baumannii, ATCC19606 a standard strain); 100 to 200 mg/kg in experiment [2]; over 200 mg/kg in experiment [3]. The “inhibitory effect on the standard strain of A. baumannii without drug resistance (in words)” value in experiment [1] is on record as “more advantageous in pharmaceutical efficacy”. The “inhibitory / anti-bacterial effect on drug-resistant strains of A. baumannii (in words)” value in experiment [2] is reported as “significantly decreased inhibitory effect”.
For the molecule `CCN1CCN(C(=O)N[C@@H](C(=O)N[C@@H]2C(=O)N3[C@@H]2SC(C)(C)[C@@H]3C(=O)O)c2ccccc2)C(=O)C1=O` [piperacillin], the “resistance rate of A. baumannii” value in experiment [4] was “over 70%”.

Values taken from US11534438B2, “Composition containing piperacillin, pharmaceutical formulation thereof and use thereof” (priority 2017, dated 2022).
